Reference: US20230134922A1, “TOPICAL DELIVERY OF BUFFERING AGENTS FOR PREVENTION AND TREATMENT OF VIRAL INFECTIONS” (Dyve Biosciences, Inc., priority 2020, published 2023)

Key:
[1] = test system: MCF-7 cells; assay: Doxorubicin uptake and cytotoxicity at medium pH 6.8 or 7.4; assay type: cell-based; conditions: raising the pHe from 6.8 to 7.4
Method: Twenty-four hours later, regular growth medium was replaced, and cells allowed to grow a subsequent 72 h, after which time they were fixed and stained with crystal violet for determination of cell number.

[2] = test system: MCF-7 tumors; assay: MCF-7 tumor growth in SCID mice, doxorubicin with oral or topical bicarbonate; assay type: in vivo
Method: The start of the bicarbonate treatment was designated as day 1.
Tumor volumes and animal weights were monitored every 2 days. […] Other characteristics of tumors that increase its potential for carcinogenesis other than growth rates are measured by other parameters as well, including inhibition metastasis.

## doxorubicin
[1]
  enhancement of cytotoxicity: 2.25 fold
  increase in intracellular doxorubicin concentrations: 2.56 fold
[2]; Group B, 1.6 mg/kg i.p. days 3, 7, 11, doxorubicin alone
  decrease of tumor growth rate: ~30%
[2]; Group D, doxorubicin i.p. with 200 mM sodium bicarbonate drinking water
  reduction in tumor growth rate: 55%
[2]; Group F, doxorubicin i.p. with topical bicarbonate formulation 150 μL/day
  reduction in tumor growth rate: significantly lowered tumor growth rate
[2]; Group F, doxorubicin i.p. with topical bicarbonate formulation 150 μL/day, listed as Doxorubicin
  reduction in tumor growth rate: 55%
